Data reported in patent publication US8822533B1, “Methods and compositions for repelling and/or killing insects” (The United States of America, as represented by the …, priority 2011, dated 2014).

Legend:
[1] = tested on: Mosquitoes, either Aedes aegypti (Liverpool) or Anopheles stephensi Liston; assay: K&D module in vitro bioassay: biting protection, knockdown and mortality; format: in vivo
Experimental: In vitro bioassays were conducted as described by Klun et. al. (Klun, J. A., et al., J. Med. Entomol., 40: 293-299 (2005)). Each test replicate consisted of 3 treatments: a control (EtOH); a standard (Deet, 4.54 nmol/μl); and an experimental compound (pyrethroid analogs, 4.54 nmol/ul). The 3 treatments were randomly assigned to consecutive cells in 2, 6-cell reservoirs connected in series to a single water-bath pump; thus, 4 replicates could be tested/run. Tests were performed in an Air Science USA hood, with an air movement velocity of approx. 110-120 ft./min., temperature of 25-27° C., and RH of 15-25%. A 6-celled reservoir was connected to and heated by a constant-temperature (38° C.) water circulator (Lauda E100, Wobser GMGH and Co., Konigshofell, Germany).
Prior to each test, the upper surface of each reservoir was coated with a thin layer of high-vacuum silicone grease (Dow Corning Corp., Midland, Mich.), and the cells then filled (approx. 6 ml. capacity) or topped-off with either: (1) expired human red blood cells suspended in citrate-phosphate-dextrose-adenine (CPDA) solution, not more than 1 month past expiration date, and to which 110 mg ATP/35 ml. blood-CPDA had been added on the day of testing; or (2) CPDA+ATP×^−3, usually made up or diluted to 10^−3 ATP on the day of testing. The filled cells were then covered with an Edicol collagen membrane (Devro, Sandy Run, S.C.) strip, and then with a just-treated (110 μl of 4.54 nmol/μl treatment or control solution) organdy cloth (G Street Fabrics, Rockville, Md.) strip. Mosquitoes used in tests were either Aedes aegypti_(Liverpool) or Anopheles stephensi_Liston. K&D modules containing 5 adult females/cell were placed over a Teflon separator atop each reservoir; the sliding floors opened allowing access to the treated organdy cloth and membrane-covered cell; and the number of mosquitoes biting (proboscis inserted through the cloth) and/or observed to be engorged within each cell at the end of a 3-5 min. exposure period was recorded. Mosquitoes were used only once in a test, and then frozen and discarded.
Only tests in which 3 or more females fed in the control cell were analyzed, as lower feeding rates are indicative of substandard feeding readiness of that group of mosquitoes.
[…] Data were collected to record knockdown in 6 minutes, one hour and 24 hours post exposure.

Ae. aegypti mosquitoes = assay: Sleeve bite protection assay on treated uniform fabric, mosquitoes; format: in vivo, Aedes aegypti (Orlando, 1952)
Experimental: (§1) Biological Evaluation: Bite protection assays were conducted with laboratory-reared 7-12 day old mosquitoes or sand flies. The species used throughout these studies are Aedes aegypti (Orlando, 1952) and Phlebotomus papatasi sand flies (Jerusalem, 1983). Females were pre-selected using either a hand draw box or a mechanical aspirator. An assay was conducted by wearing sewn sleeves made from clothing material. Treated specimens were assayed with untreated controls to correct for the bite resistance afforded by material construction and composition. The untreated control was tested at the beginning of the experiment, followed by successively higher candidate repellent concentrations on sleeves. Sleeves were sewn from a cut out single ply trapezoidal pattern (33.2 cm×21 cm×25.5 cm height) of material. […] Permethrin was 35:65cis: trans, 95.85% technical material. Experimental repellents were received as neat samples with <5% impurities. The treatment occurred by dissolution of repellent in suitable quantity of acetone to saturate the clothing, but minimizing excess solution. Excess solution was quantified and this amount of excess was then used to calculate the estimated amount of repellent applied to the material. […] The photoperiod was 12:12. The mosquito cages were approximately 60000 cm^3 and each contained 175 to 225 female mosquitoes. […] Cages for sand fly work were slightly smaller (15000 cm^3) and constructed of acrylic for filming purposes and with screens on the exterior edges to allow air flow through the system. About 20-40 sand flies were released in cages for each assay. Assays started when the sleeved arm was inserted through the sleeve into the cage. Normally the hand was protected by a glove, but there were situations (i.e. sand fly data presented here) when the ability of a repellent to protect the untreated hand was determined. The assay periods were 15 min for the mosquitoes and 25-30 minutes for sand flies. The insects were allowed to land, probe and possibly bloodfeed during this time. At the conclusion of the experiment, all insects were knocked down or aspirated and the percentage that bloodfed of the total female test population in the cage was recorded. The protect level was calculated by Abbott's formula as a percentage reduction in bites compared to the untreated fabric control sleeve. Specific conditions for bioassays are noted with corresponding data contained in the Tables.

[2] = tested on: Phlebotomus papatasi sand flies; assay: Sleeve bite protection assay on treated uniform fabric, sand flies; format: in vivo, Phlebotomus papatasi (Jerusalem, 1983); conditions: FRACU, 25-29 minutes
Experimental: as §1

[3] = ACU (50/50 NYCO) sleeve, glove on hand, 15 min, permethrin 0.118, transfluthrin 0.108, TL-I-107 0.107, TL-I-141 0.109, TL-I-105 0.107, TL-I-73 0.102 mg/cm^2
[4] = ACU (50/50 NYCO) sleeve, glove on hand, Abbott's formula vs untreated sleeve, concentrations as E1
[5] = ACU (50/50 NYCO) sleeve, glove on hand, concentrations as E1
[6] = ACU sleeve, No Glove on hand, permethrin 0.118, transfluthrin 0.108 mg/cm^2
[7] = ACU sleeve, stored one year then tested, concentrations as E1
[8] = ACU sleeve, treated specimens stored in refrigerator for one year then tested, concentrations as E1
[9] = FRACU sleeve, concentrations as E9
[10] = FRACU, permethrin sleeve 0.135 mg/cm^2 + untreated strip, Ultrathon (34.34% DEET) on hand
[11] = FRACU, permethrin sleeve 0.135 mg/cm^2 + untreated strip, hand gloved
[12] = permethrin sleeve 0.135 mg/cm^2 + untreated strip, hand ungloved
[13] = FRACU, untreated sleeve + treated strip, Ultrathon (34.34% DEET) on hand, TL-I-73 0.163, transfluthrin 0.158 mg/cm^2
[14] = FRACU, untreated sleeve + treated strip, hand gloved, TL-I-73 0.163, transfluthrin 0.158 mg/cm^2
[15] = untreated sleeve + TL-I-73 strip 0.163 mg/cm^2, hand ungloved

SMILES	Knockdown 6 min (%) ([1]; 2.5 nM\cm^2, K&D module)	Knockdown 1 hour (%) ([1]; 2.5 nM\cm^2, K&D module)	Knockdown 24 hours (%) ([1]; 2.5 nM\cm^2, K&D module)	Not feeding 3 minutes (%) ([1]; 2.5 nM\cm^2, K&D module)	Knockdown 6 min (%) ([1]; 25 nM\cm^2, K&D module)	Knockdown 1 hour (%) ([1]; 25 nM\cm^2, K&D module)	Knockdown 24 hours (%) ([1]; 25 nM\cm^2, K&D module)	Not feeding 3 minutes (%) ([1]; 25 nM\cm^2, K&D module)	Blood-fed # (Ae. aegypti mosquitoes; [3])	Bite Protection (%) (Ae. aegypti mosquitoes; [4])	Fed (%) (Ae. aegypti mosquitoes; [5])	Bite Protection (%) (Ae. aegypti mosquitoes; [7])	Fed (%) (Ae. aegypti mosquitoes; [7])	Blood-fed # (Ae. aegypti mosquitoes; [8])	also measured
CC(C)=C[C@@H]1[C@@H](C(=O)OCc2c(Cl)c(Cl)c(C)c(Cl)c2Cl)C1(C)C [TL-I-109]	4	35	6	98	4	58	37	98							
CC1(C)C(C=C(Cl)Cl)C1C(=O)OCc1cccc(Oc2ccccc2)c1 (centres unmarked) [Permethrin]									0 #	100	0.0	100	0.0	0 #	Blood-fed # (Ae. aegypti mosquitoes; [6]): 32 #; Fed (%) (Ae. aegypti mosquitoes; [6]): 18.1%; Blood-fed # (Ae. aegypti mosquitoes; FRACU (65% Rayon, 10% Nylon, 25% Para-aramid) sleeve, permethrin 0.071, combination permethrin 0.031 + transfluthrin 0.038, transfluthrin 0.052 mg/cm^2): 24 #; Bite Protection (%) (Ae. aegypti mosquitoes; [9]): 86.7%; Fed (%) (Ae. aegypti mosquitoes; [9]): 10.5%; Bite Protection (%) (Ae. aegypti mosquitoes; [10]): 71.5%; Blood-fed # (Ae. aegypti mosquitoes; [10]): 15 #; Fed (%) (Ae. aegypti mosquitoes; [10]): 7.6%; Bite Protection (%) (Ae. aegypti mosquitoes; [11]): 94.0%; Blood-fed # (Ae. aegypti mosquitoes; [11]): 10 #; Fed (%) (Ae. aegypti mosquitoes; [11]): 4.9%; Bite Protection (%) [2, 12]: −28.5%; Blood-fed # [2, 12]: 11 #; Fed (%) [2, 12]: 52.3%; Bite Protection (%) ([2]; permethrin sleeve 0.135 mg/cm^2 + untreated strip, hand ungloved, listed as permethrin): increased bites on the skin
Cc1c(Cl)c(Cl)c(COC(=O)C2C(C=C(Cl)C(F)(F)F)C2(C)C)c(Cl)c1Cl (centres unmarked) [TL-I-113]	0	14	9	76	0	34	23	92							
COCc1c(Cl)c(Cl)c(COC(=O)[C@@H]2[C@@H](C=C(C)C)C2(C)C)c(Cl)c1Cl [TL-I-73]	97	100	100	100	97	100	100	100	0 #	100	0.0	100	0.0	0 #	Blood-fed # (Ae. aegypti mosquitoes; FRACU, untreated sleeve + treated strip (20.5 cm × 2.6 cm) at wrist, hand gloved, TL-I-73 0.163, transfluthrin 0.158 mg/cm^2): 71 #; Blood-fed # (Ae. aegypti mosquitoes; FRACU, untreated sleeve + treated strip, Ultrathon 12 hr repellent (34.34% DEET) on hand, TL-I-73 0.163, transfluthrin 0.158 mg/cm^2): 85 #; Bite Protection (%) (Ae. aegypti mosquitoes; [13]): −45%; Fed (%) (Ae. aegypti mosquitoes; [13]): 38.8%; Bite Protection (%) (Ae. aegypti mosquitoes; [14]): 57.2%; Fed (%) (Ae. aegypti mosquitoes; [14]): 10.5%; Bite Protection (%) [2, 15]: 21.8%; Blood-fed # [2, 15]: 7 #; Fed (%) [2, 15]: 31.8%
Cc1c(Cl)c(Cl)c(COC(=O)C2C(C=C(Cl)Cl)C2(C)C)c(Cl)c1Cl (centres unmarked) [TL-I-111]	0	16	8	90	2	23	16	92							
Cc1c(F)c(F)c(COC(=O)[C@@H]2[C@@H](C=C(Cl)Cl)C2(C)C)c(F)c1F [TL-I-141]	100		100	100	100		100	100	0 #	100	0.0	100	0.0	0 #	Knockdown 1 hour (%) ([1]; 2.5 nmol/cm^2, K&D module): 100%; Knockdown 1 hour (%) ([1]; 25 nmol/cm^2, K&D module): 100%; mortality at 0.0025 µM ([1]; Aedes aegypti, 24 h): 100%; mortality at 0.025 µM ([1]; Aedes aegypti, 48 h): 100%
CC1(C)C(C=C(Cl)Cl)C1C(=O)OC(C#N)c1cccc(Oc2ccccc2)c1 (centres unmarked) [a-cypermethrin, reference compound]	67	91	100	81	83	100	100	98							
